Test results reported in US8859581B2, “Azaheterocyclic compounds as kinase inhibitors” (Merck Patent GmbH, priority 2005, dated 2014).
Where a name gives a salt, the structure may show the parent alone.

| Structure (SMILES) | melting point |
| --- | --- |
| COc1cccc(-c2c([Si](C)(C)C)[nH]c3ccnc(Cl)c23)c1 | 137 °C |
| COc1cccc(-c2c([Si](C)(C)C)[nH]c3cc(Cl)ncc23)c1 | 179 to 179.5 °C |
| c1ccc(CCCOc2cccc(-c3cc4c(Nc5cccnc5)ccnc4[nH]3)c2)cc1 (as salt: HCl) [Compound 22] | 166 to 167.5 °C |
| Fc1cccc(Nc2ccnc3[nH]c(-c4cccc(OCCCc5ccccc5)c4)cc23)c1 (as salt: HCl) [Compound 24] | 210 to 211.5 °C |
| c1ccc(CCCOc2cccc(-c3cc4c(Nc5ccccn5)ccnc4[nH]3)c2)cc1 (as salt: HCl) [Compound 25] | 175 to 176 °C |
| Fc1ccccc1Nc1ccnc2[nH]c(-c3cccc(OCCCc4ccccc4)c3)cc12 (as salt: HCl) [Compound 26] | 155 to 156 °C |
| COc1ccc(CNc2nccc3[nH]cc(-c4cccc(OC)c4)c23)cc1 (as salt: HCl) [Compound 42] | 226 to 227 °C |
| COc1cccc(-c2c([Si](C)(C)C)n(CCCCN3C(=O)c4ccccc4C3=O)c3ccnc(Cl)c23)c1 (as salt: TFA) | 183 to 184 °C |
| COc1ccc(-c2cc3c(N(C(=O)c4ccc(F)c(Cl)c4)C(=O)c4ccc(F)c(Cl)c4)ccnc3[nH]2)cc1 (as salt: TFA) [Compound 33] | 142 to 144 °C |
| COc1ccc(-c2cc3c(NC(=O)Nc4ccc(Cl)c(C(F)(F)F)c4)ccnc3[nH]2)cc1 (as salt: TFA) [Compound 34] | 141 to 142 °C |
| C=CCNc1ccnc2[nH]c(-c3ccc(OC)cc3)cc12 (as salt: TFA) [Compound 35] | 189.5 to 190 °C |
| COc1ccc(CNc2ccn(CCCCN)c3nc(-c4ccc(OC)cc4)cc2-3)cc1 (as salt: TFA) [Compound 36] | 127 to 127.5 °C |
| COc1cccc(-c2cn(CCCCN)c3ccnc(N)c23)c1 (as salt: TFA) [Compound 47] | 50 °C |
| COc1ccc(CNc2nccc3[nH]c(-c4cccc(OCc5ccccc5)c4)cc23)cc1 (as salt: TFA) [Compound 48] | 130 to 131 °C |
| COc1cccc(-c2cn(CCCN3C(=O)c4ccccc4C3=O)c3ccnc(Cl)c23)c1 (as salt: TFA) [Compound 49] | 129 to 130 °C |
| COc1cccc(-c2cn(CCN3C(=O)c4ccccc4C3=O)c3ccnc(Cl)c23)c1 (as salt: TFA) [Compound 51] | 130 °C (dec.) |
| COc1cccc(-c2cn(CCCCN3C(=O)c4ccccc4C3=O)c3ccnc(N)c23)c1 (as salt: TFA) [Compound 55] | 188 to 189 °C |
| COc1cc(-c2cc3c(Nc4cccnc4)ccnc3[nH]2)cc(OC)c1OC (as salt: hydrochloride) (hydrate or solvate) [Compound 2] | 202 to 203 °C |
| COc1ccc(Nc2ccnc3[nH]c(-c4cc(OC)c(OC)c(OC)c4)cc23)cc1N1CCN(C)CC1 (as salt: hydrochloride) (hydrate or solvate) [Compound 3] | 78 to 80 °C |
| COc1cc(-c2cc3c(Nc4cnccn4)ccnc3[nH]2)cc(OC)c1OC (as salt: hydrochloride) (hydrate or solvate) [Compound 7] | 292 to 294 °C |
| COc1cc(-c2cc3c(NCc4cccnc4)ccnc3[nH]2)cc(OC)c1OC (as salt: hydrochloride) (hydrate or solvate) [Compound 8] | 181.5 to 183 °C |
| COc1cc(-c2cc3c(NCCc4cccnc4)ccnc3[nH]2)cc(OC)c1OC (as salt: hydrochloride) (hydrate or solvate) [Compound 9] | 105.5 to 106.5 °C |
| COc1cc(-c2cc3c(NCCc4ccccn4)ccnc3[nH]2)cc(OC)c1OC (as salt: hydrochloride) (hydrate or solvate) [Compound 10] | 153 to 154 °C |

| Structure (SMILES) | melting point |
| --- | --- |
| COc1cc(-c2cc3c(Nc4cccc(C#N)c4)ccnc3[nH]2)cc(OC)c1OC (as salt: hydrochloride) (hydrate or solvate) [Compound 11] | 291 to 292.5 °C |
| COc1cccc(-c2cc3c(NCCCN(C)C)ccnc3[nH]2)c1 (as salt: hydrochloride) (hydrate or solvate) [Compound 15] | 257 to 258 °C |
| C#CCCCCNc1ccnc2[nH]c(-c3ccc(OC)cc3)cc12 (as salt: hydrochloride) (hydrate or solvate) [Compound 20] | 118 to 120 °C |
| COc1cc(-c2cc3c(Nc4cnc5ccccc5c4)ccnc3[nH]2)cc(OC)c1OC (as salt: hydrochloride) [Compound 1, quinolin-3-yl-[2-(3,4,5-trimethoxyphenyl)-1H-pyrrolo[2,3b]pyridin-4-yl]amine] | 227 to 228.5 °C |
| COc1cc(-c2cc3c(Nc4ccc(F)c(Cl)c4)ccnc3[nH]2)cc(OC)c1OC (as salt: hydrochloride) [Compound 5] | 267.5 to 269 °C |
| COc1cccc(-c2cc3c(Nc4ccc(F)c(Cl)c4)ccnc3[nH]2)c1 (as salt: hydrochloride) [Compound 6] | 164 to 165 °C |
| COc1cccc(-c2cc3c(NCCCn4ccnc4)ccnc3[nH]2)c1 (as salt: hydrochloride) [Compound 12] | 161 to 162 °C |
| COc1cccc(-c2cc3c(NCc4ccccc4)ccnc3[nH]2)c1 (as salt: hydrochloride) [Compound 14] | 117 to 119 °C |
| COc1ccc(CNc2ccnc3[nH]c(-c4ccc(OC)cc4)cc23)cc1 (as salt: hydrochloride) [Compound 16] | 196 to 197 °C |
| COc1cccc(-c2cc3c(NCCn4cccc4)ccnc3[nH]2)c1 (as salt: hydrochloride) [Compound 17] | 218 to 219 °C |
| COc1ccc(CNc2ccnc3[nH]c(-c4cccc(OCCCc5ccccc5)c4)cc23)cc1 [Compound 23] | 164 to 165 °C |
| c1ccc(CCCOc2cccc(-c3cc4cccnc4[nH]3)c2)cc1 [Compound 30] | 128 to 129 °C |
| COc1ccc(CNc2ccnc3[nH]c(-c4cccc(OCc5ccccc5)c4)cc23)cc1 [Compound 32] | 218 to 219 °C |
| COc1cccc(-c2c[nH]c3ccnc(Cl)c23)c1 [Compound 46] | 159.5 to 160 °C |
| COc1cccc(-c2cn(CCCNC(=O)c3ccccc3C(=O)O)c3ccnc(Cl)c23)c1 [Compound 50] | 122 to 124 °C |
| COc1cccc(-c2c[nH]c3ccnc(Nc4ccccn4)c23)c1 [Compound 53] | > 299 °C |
| Clc1nccc2[nH]cc(-c3cccc(OCc4ccccc4)c3)c12 [Compound 56] | 156 to 158 °C |
| COc1cccc(-c2c[nH]c3ccnc(NCc4cccnc4)c23)c1 [Compound 62] | 80 °C (dec.) |
| COc1cccc(-c2c[nH]c3ccnc(Nc4cccnc4)c23)c1 [Compound 63] | 177 to 178 °C |
| c1ccc(COc2cccc(-c3cc4cnccc4[nH]3)c2)cc1 [Compound 70] | 168 to 170 °C |
| COc1ccc(-c2cc3cnccc3[nH]2)cc1 [Compound 75] | 205 to 207 °C |
| COc1cccc(-c2c[nH]c3cc(Cl)ncc23)c1 [Compound 77] | 211 to 212 °C |
| COc1cccc(-c2cn(CCNC(=O)c3ccccc3C(=O)O)c3cc(Cl)ncc23)c1 [Compound 78] | 160 °C (dec.) |
